Assay results: ChEMBL document CHEMBL3272051, “Some 9-hydroxycannabinoid-like compounds. Synthesis and evaluation of analgesic and behavioral properties” (J Med Chem, 1979)
Activity calls are given as the source filed them. The calls are words filed in the database; no cut-off is given here.

Key:
Canis familiaris [1] = assay: Effect on overt behavior in dog assessed as prostration at 4 to 10 mg/kg, iv; format: organism-based, Canis lupus familiaris; set-up: dose 4-10 mg/kg, route intravenous; conditions: in vivo
Canis familiaris [2] = assay: Effect on overt behavior in dog assessed as hyperreflexia at 0.05 to 10 mg/kg, iv; format: organism-based, Canis lupus familiaris; set-up: dose 0.05-10 mg/kg, route intravenous; conditions: in vivo
Canis familiaris [3] = assay: Effect on overt behavior in dog assessed as static ataxia at 0.05 to 10 mg/kg, iv; format: ADME, organism-based, Canis lupus familiaris; set-up: dose 0.05-10 mg/kg, route intravenous; conditions: in vivo
Mus musculus [4] = assay: Analgesic activity in mouse at 50 mg/kg, sc by hot plate test; format: functional, organism-based; set-up: dose 50 mg/kg
Mus musculus [5] = organism: Mus musculus; assay: Analgesic activity in mouse by tail-flick test relative to morphine; format: functional
Mus musculus [6] = organism: Mus musculus; assay: Analgesic activity in mouse assessed as inhibition of p-phenylquinone-induced writhing relative to morphine; format: functional
Mus musculus [7] = assay: Analgesic activity in sc dosed mouse by hot plate test; format: functional
Mus musculus [8] = organism: Mus musculus; assay: animal or person; format: functional; conditions: Tail, sc
Canis familiaris [9] = assay: Effect on overt behavior in dog assessed as depression at 0.05 to 10 mg/kg, iv; format: organism-based, Canis lupus familiaris; set-up: dose 0.05-10 mg/kg, route intravenous; conditions: in vivo
Mus musculus [10] = assay: Analgesic activity in mouse at 10 mg/kg, sc by tail-flick test; format: functional, organism-based; set-up: dose 10 mg/kg
Mus musculus [11] = assay: Analgesic activity in mouse at 20 mg/kg, sc by hot plate test; format: functional, organism-based; set-up: dose 20 mg/kg

| SMILES | Activity (Canis familiaris [1]) | Activity (Canis familiaris [2]) | Activity (Canis familiaris [3]) | ED50 (Mus musculus [7]) [mg/kg] | also measured |
| --- | --- | --- | --- | --- | --- |
| CCCCCc1cc(O)c2c(c1)OC(C)(C)C1=C2CC(O)CC1 (racemic) | Toxic | Toxic | Toxic | – | Activity (Mus musculus [4]): inactive |
| CCCCCc1cc(O)c2c(c1)OC(C)(C)[C@@H]1CC[C@@H](O)C[C@@H]21 | Toxic | – | – | 1.6 | fold change (FC) (Mus musculus [5]): 5; fold change (FC) (Mus musculus [6]): 20; ED50 (Mus musculus [8]): 1 mg/kg |
| CCCCCc1cc(O)c2c(c1)OC(C)(C)C1CCC(O)CC21 (racemic) | Toxic | – | – | 2.9 | – |
| CCCCCc1cc(O)c2c(c1)OC(C)(C)c1ccc(O)cc1-2 | Toxic | Non-toxic | Non-toxic | 35.6 | Activity (Canis familiaris [9]): Toxic; Activity (Mus musculus [10]): inactive |
| CN1CC[C@]23c4c5ccc(O)c4O[C@H]2[C@@H](O)C=C[C@H]3[C@H]1C5.Cl [MORPHINE HYDROCHLORIDE] | – | – | – | 1.2 | – |
| CCCCCc1cc(O)c2c(c1)OC(C)(C)[C@@H]1CC[C@@H](O)C=C21 (racemic) | Toxic | Toxic | Toxic | – | Activity (Mus musculus [4]): inactive |
| CCCCCc1cc(O)c2c3c(c(=O)oc2c1)CCC(O)C3 (racemic) | Toxic | Non-toxic | Non-toxic | – | Activity (Canis familiaris [9]): Toxic; Activity (Mus musculus [11]): inactive |
| CCCCCc1cc(O)c2c(c1)OC(C)(C)[C@@H]1CCC(C)=C[C@@H]21 [DRONABINOL] | Toxic | – | – | – | – |
| CCCCCc1cc(O)c2c(c1)OC(C)(C)[C@@H]1CC[C@H](O)C[C@@H]21 | Toxic | – | – | – | – |
| CCCCCc1cc(O)c2c(c1)OC(C)(C)[C@H]1CC[C@H](O)C[C@H]21 | Toxic | – | – | – | – |
